Where a name gives a salt, the structure may show the parent alone.
What follows are compounds tested on A549 human lung epithelium cell line (assay: RANTES production in response to TNF-α from A549 cells). Conditions: A549 cells, 100 ng/ml TNF-α, read-out: Cellular activity grade (A549) (Cellular IC50).
Type: cell-based
Method: [The Measurement of RANTES Production in Response to TNF-α from A549 Cells]
(1) Preparation of A549 Cells
• The A549 human lung epithelium cell line (ATCC […]) was maintained in Dulbecco's modified Eagle's medium (D-MEM, Nikken Biomedical Institute) supplemented with 10% FCS (Gibco), 100 U/ml penicillin, 100 μg/ml streptomycin, and 2 mM glutamine (culture medium). Forty thousand (4×10^4) cells (80 μl/well) were seeded in each well of 96 well flat-bottom tissue culture plate (Falcon #3072). The plate was allowed to stand for 2 hrs, thus the cells were adhered to the bottom of each well. To the each well was added 10 μl vehicle (1% DMSO), serial dilutions of test compounds in 1% DMSO, or 5 nM Dexamethasone in 1% DMSO as a reference. The mixture (90 μl/well) was incubated for 1 hr at 37° C. After 1 hr, 1 μg/ml TNF-α (10 μl) in culture medium was added to the mixture to obtain 100 μl of reaction mixture. The reaction mixture was cultured for 24 hrs to stimulate the cells with 100 ng/ml TNF-α. Cells with vehicle without TNF-α stimulation were also prepared. (2) Measurement of RANTES Production • Then the concentration of RANTES released from the cells in the supernatants of each well was determined using a quantitative sandwich enzyme immunoassay technique. First, 2 μg/ml mouse anti-huRANTES mAb (R&D Systems, #mAb678) in PBS buffer (pH 7.4, 100 μl) was put in each well of 96-well NUNC fluoro plate (Nalge Nunc, New York USA) (Final 200 ng/well) and the plate was allowed to stand for overnight at 4° C. to be coated by the antibody. Each well of the plate was then washed with 350 μl wash buffer (0.05% Tween-20, 0.85% NaCl, and 25 mM Tris/HCl pH7.4) for three times. Blocking buffer containing 1% BSA (Sigma 99% pure, 100 g), 5% sucrose (Nacalai tesque, 99% pure, 500 g), and 0.02% azide (Nacalai tesque, 100%, 500 g) were added (200 μl) to each well and then the plate was allowed to stand for 4 hours to stabilize the coated antibody. Next, 50 μl supernatants of cell culture prepared in (1) above were put in each well of the 96-well NUNC fluoro plate with coated antibody. Recombinant Human RANTES (Pepro Tech, Inc. #300-06) was used as the standard for the determination of RANTES production (linear range between 1 and 10 ng/ml). Eu-labelled mouse anti-huRANES mAb (60 ng/ml: R&D Systems, #mAb278) in PBS supplemented by 1% BSA and 0.05% Tween 20 was added (50 μl) to each well. The reaction mixtures were incubated at room temperature for 4 hrs. After washing with wash buffer (0.05% Tween-20, 0.85% NaCl, and 25 mM Tris/HCl pH7.4, 350 μl/well) for 5 times with the use of a Sera Washer (Bio-Tech, #MW-96R), the enhancement solution (DELFIA, #1244-405, 100 μl/well) was added to each well. The plate was incubated for 10 minutes at room temperature with moderate shaking. Fluorescent intensity was measured using a DELFIA fluorimeter (Wallac). Excitation was performed at 340 nm and emission was measured at 615 nm. [The Measurement of TNF-α Production in Response to LPS from Peripheral Blood Mononuclear Cells (PBMC)] (1) Preparation of PBMC • Human PBMC were prepared by first obtaining blood from healthy donors and isolating the cells from the blood. The isolation was done by Ficoll gradient-centrifugation method using Ficoll Pacque (Pharmacia #17-1440-02). Within three hours from donation, the isolated PBMC was used. After three times washing with PBS, PBMC were resuspended with RPMI 1640 (Nikken BioMedical Institute) supplemented with 10% FCS (Gibco), 100 U/ml penicillin, 100 μg/ml streptomycin, and 2 mM glutamine (culture medium). The cells (1×10^5 in 150 μL/well) were seeded in each well of 96 well flat-bottom tissue culture plate (Falcon #3072). To the each well was added 20 μl vehicle (1% DMSO), serial dilutions of test compounds in 1% DMSO, or 250 nM Dexamethasone in 1% DMSO as a reference. The mixture (170 μl/well) was incubated for 1 hr at 37° C. After 1 hr, 20 ng/ml LPS (30 μl) in culture medium was added to the mixture to obtain 200 μl of reaction mixture. […]
`Nc1nc(-c2ccccc2O)cc2c1CNC2Cc1ccccc1` (stereo in doubt) [Example 20-3, 2-[(1S)-4-amino-1-benzyl-2,3-dihydro-1H-pyrrolo[3,4-c]pyridin-6-yl]phenol hydrochloride] gave an IC50 of 1 to 10 µM.

Same assay, conditions: Homo sapiens, A549, A549 cells, 100 ng/ml TNF-α, read-out: Cellular activity grade (A549) (Cellular IC50)
Work on `N#Cc1c(C2CCCNC2)cc(-c2ccccc2O)nc1N` (centres unmarked) [Example 1-1, 2-amino-6-(2-hydroxyphenyl)-4-(3-piperidinyl)-nicotinonitrile hydrochloride] yielded an IC50 of less than 1 µM.
Work on `N#Cc1c(C2CCNC2)cc(-c2ccccc2O)nc1N` (centres unmarked) [Example 1-2, 2-amino-6-(2-hydroxyphenyl)-4-(3-pirrolidinyl)nicotinonitrile trifluoroacetate] yielded an IC50 of less than 1 µM.
Work on `CC1(c2cc(-c3ccccc3O)nc(N)c2C#N)CCCNC1` (centres unmarked) [Example 1-3, 2-amino-6-(2-hydroxyphenyl)-4-(3-methylpiperidin-3-yl)-nicotinonitrile hydrochloride] yielded an IC50 of 1 to 10 µM.
`N#Cc1c(N)nc(-c2ccccc2O)c(F)c1C1CCCNC1` (centres unmarked) [Example 1-4, 2-amino-5-fluoro-6-(2-hydroxyphenyl)-4-(3-piperidinyl)-nicotinonitrile trifluoroacetate] gave an IC50 of 1 to 10 µM.
In the case of `CNC1CCCC(c2cc(-c3ccccc3O)nc(N)c2C#N)C1` (centres unmarked) [Example 1-5, 2-amino-6-(2-hydroxyphenyl)-4-[3-methylamino]cyclohexyl]nicotinonitrile hydrochloride], the IC50 is reported as 1 to 10 µM.
`N#Cc1c(C2CCCNC2)cc(-c2ncccc2O)nc1N` (centres unmarked) [Example 1-6, 6-amino-3′-hydroxy-4-(3-piperidinyl)-2,2′-bipyridine-5-carbonitrile hydrochloride] showed an IC50 of less than 1 µM.
For `N#Cc1c(C2CCCNC2)cc(-c2sccc2O)nc1N` (centres unmarked) [Example 1-7, 2-amino-6-(3-hydroxy-2-thienyl)-4-(3-piperidinyl)nicotinonitrile hydrobromide], the IC50 was less than 1 µM.
`N#Cc1c(C2CCCC(C(=O)O)C2)cc(-c2ccccc2O)nc1N` (centres unmarked) [Example 1-8, 3-[2-amino-3-cyano-6-(2-hydroxyphenyl)-4-pyridinyl]cyclohexanecarboxylic acid] gave an IC50 greater than 10 µM.
In the case of `N#Cc1c(C2=CCCNC2)cc(-c2ccccc2O)nc1N` [Example 1-9, 2′-amino-6′-(2-hydroxyphenyl)-1,2,5,6-tetrahydro-3,4′-bipyridine-3′-carbonitrile hydrochloride], the IC50 is reported as less than 1 µM.
`N#Cc1c(C2CCCNC2)cc(-c2c(N)cccc2O)nc1N` (centres unmarked) [Example 1-10, 2-amino-6-(2-amino-6-hydroxyphenyl)-4-(3-piperidinyl)nicotinonitrile hydrochloride] showed an IC50 greater than 10 µM.
Work on `N#Cc1c(C2CCCNC2)cc(-c2c(O)cccc2NCc2ccccc2)nc1N` (centres unmarked) [Example 1-11, 2-amino-6-[2-(benzylamino)-6-hydroxyphenyl]-4-(3-piperidinyl)nicotinonitrile hydrochloride] yielded an IC50 greater than 10 µM.
`CC(=O)Nc1cccc(O)c1-c1cc(C2CCCNC2)c(C#N)c(N)n1` (centres unmarked) [Example 1-12, N-{2-[6-amino-5-cyano-4-(3-piperidinyl)-2-pyridinyl]-3-hydroxyphenyl}acetamide hydrochloride] showed an IC50 greater than 10 µM.
For `N#Cc1c(C2CCCNC2)cc(-c2c(O)cccc2O)nc1N` (centres unmarked) [Example 2-1, 2-amino-6-(2,6-dihydroxyphenyl)-4-(3-piperidinyl)nicotinonitrile hydrochloride], the IC50 was less than 1 µM.
Compound `N#Cc1c(C2CCCNC2)cc(-c2c(O)cccc2OCc2ccccc2)nc1N` (centres unmarked) [Example 2-2, 2-amino-6-[2-(benzyloxy)-6-hydroxyphenyl]-4-(3-piperidinyl)nicotinonitrile hydrochloride] has an IC50 of less than 1 µM.
`N#Cc1c(C2CCNCC2)cc(-c2c(O)cccc2OCC2CC2)nc1N` [Example 2-3, hydrochloride] showed an IC50 of less than 1 µM.
Compound `CN1CCCC(c2cc(-c3c(O)cccc3OCC3CC3)nc(N)c2C#N)C1` (centres unmarked) [Example 3-1, 2-amino-6-[2-(cyclopropylmethoxy)-6-hydroxyphenyl]-4-(1-methyl-3-piperidinyl)nicotinonitrile] has an IC50 of less than 1 µM.

Source: patent publication US6984649B1, “Pyridine derivatives” (Bayer Aktiengesellschaft, priority 2000, dated 2006)
